Common to all, as to assay type: functional, cell-based
The subject of assay [1] is A549. In words: Cytotoxicity against human A549 cells after 2 hrs. To be noted: A549, 2 h.
For assay [2], the system named is A549. In words: Cytotoxicity against human A549 cells after 72 hrs. The conditions noted are these: A549, 72 h.
The test system of assay [3] is A549. In words: Cytotoxicity against human A549 cells after 9 hrs. The conditions noted are these: A549, 9 h.
Assay [4] relates to A549. Put plainly: Cytotoxicity against human A549 cells. The conditions noted are these: TDE = time-dependent effect.

For `CC1(C)CC[C@]2(CO)[C@H](O)C[C@]3(C)C(=CC[C@@H]4[C@@]5(C)CC[C@H](O[C@@H]6OC[C@H](O)[C@H](O)[C@H]6O[C@@H]6O[C@H](CO)[C@@H](O)[C@H](O)[C@H]6O[C@@H]6OC[C@@H](O)[C@H](O)[C@H]6O)[C@@](C)(CO)[C@@H]5CC[C@]43C)[C@H]2C1` [HETERGENOSIDE B], the IC50 turned out to be 26.4 µM in assay [1] and 19.1 µM in assay [2].
Consider `CC1(C)CC[C@]2(CO)[C@H](O)C[C@]3(C)C(=CC[C@@H]4[C@@]5(C)CC[C@H](O[C@@H]6OC[C@H](O)[C@H](O)[C@H]6O[C@@H]6O[C@H](CO)[C@@H](O)[C@H](O)[C@H]6O)[C@@](C)(CO)[C@@H]5CC[C@]43C)[C@H]2C1` [HETEROGENOSIDE A], for which the half-inhibitory concentration (IC50) is 24.5 µM in assay [2] and over 100 µM in assay [3]. The Activity result in assay [4] was “tde”.

As usually defined, the IC50 is the midpoint of a concentration-inhibition curve. Lower therefore signals higher potency.

The record behind these values is ChEMBL document CHEMBL1154672, “Four new cytotoxic oligosaccharidic derivatives of 12-oleanene from Lysimachia heterogenea Klatt” (Bioorg Med Chem Lett, 2009).
